{"source": "patent US20190150455A1", "about": "“COMPOSITIONS OF SAPONINS AND PLANT EXTRACTS” (Y&B MOTHER'S CHOICE LTD., priority 2016, published 2019)", "system": "E. coli, S. aureus, P. aeruginosa, C. albicans and A. Brasiliensis", "assay": "Challenge test, statements on all tested microorganisms together", "type": "cell-based", "conditions": "non-preserved cream", "protocol": "The various lotion or cleansing formulae were contaminated by suitable microorganisms (bacteria and yeast), as described below. The so-prepared samples were incubated as described below. Using serial dilutions and plate counts, aliquots were taken during the incubation period for determining microorganism count. Tested Microorganisms: E. coli (ATCC 8739); S. aureus (ATCC 6538); P. aeruginosa (ATCC 9027); C. albicans (ATCC 10231) and A. Brasiliensis (ATCC 16404)). Bacteria, yeast, and mold suspensions were prepared according to ISO 11930; TSA culture medium for the bacteria was obtained from Hylab (Cat. No PD-087/A); PDA culture medium for A. brasiliensis was obtained from Hylab (Cat. No PD-043); SDA culture medium for C. albicans was obtained from Hylab (Cat. No PD-044); 0.1% peptone was prepared by mixing 1 g/l Peptone in sterile water. The test was performed according ISO 11930. Each sample was contaminated with microorganisms to obtain the range of 10^5-10^6 cfulml. The inoculated formulation was mixed thoroughly to ensure a homogeneous distribution of the inoculum. Samples were stored at 25° C. Each sample was sampled in intervals of 2, 7, 14, 21 and 28 days, according to the following procedure: 100 μl of the inoculated formulation was streaked on suitable agar medium. The plates were incubated at 37° C. for bacteria and 25° C. for yeast and mold. […]", "data": [{"smiles": "CCCCCCCC(=O)OCC(O)CO", "note": "(stereo not shown) [glyceryl caprylate]", "values": [{"measurement": "Antimicrobial activity against the tested microorganisms, in words", "value": "improved the antimicrobial activity of the tested formulations"}]}]}
